For data set [1], the system named is Staphylococcus aureus (S. aureus F-1924). In words: MIC against Staphylococcus aureus, agar dilution. The format is cell-based. Particulars: Mueller Hinton agar, 37° C., 20 hours, read-out: MIC (lowest concentration which inhibited visible growth of the cells). The method, then:
According to the standard method of Japan Chemotherapy Society [CHEMOTHERAPY, Vol. 29, No. 1, p. 76-79 (1981)], Staphylococcus aureus (S. aureus F-1924) was cultivated in Mueller Hinton broth [manufactured by Difco] at 37° C. for 20 hours and the cell density was adjusted to 10^6 cells/plate (10^8 cells/ml). A loopful of the bacterial suspension was inoculated on Mueller Hinton agar medium [manufactured by Difco] and incubated at 37° C. for 20 hours. Whether or not the growth of cells occurred was observed and MIC (μg/ml) was defined as the lowest concentration which inhibited visible growth of the cells.

The test system of data set [2] is ddy male mice. In words: Micronucleus test. The format is in vivo. Conditions: intraperitoneally at 500 mg/Kg. On the procedure:
According to the description in Dokusei Shiken Koza 12 (Chijinshokan, 1991), pages 147-153, micronucleus test was carried out using ddy male mice. As a result, the compounds (a), (c), (d) and (g) were negative when administered intraperitoneally at 500 mg/Kg.

The test system of data set [3] is ddy male mice. In words: Acute toxicity. The data set is classed as in vivo. Conditions: three ddy male mice; intraperitoneally 500 mg/Kg. The method, then:
Three ddy male mice were intraperitoneally administered with 500 mg/Kg of (a), (b), (d) or (g).

SMILES strings stand for the structures. In brackets after ≈: the same amount, converted by molar mass.

These results are taken from patent publication US6335447B1, “Quinolonecarboxylic acid derivatives or salts thereof” (Toyama Chemical Co., Ltd., priority 1998, dated 2002).

In the case of `CC1CCc2c(N3CCC(O)CC3)c(F)cc3c(=O)c(C(=O)O)cn1c23` (racemic) [k, (±)-9-Fluoro-6,7-dihydro-8-(4-hydroxy-1-piperidinyl)-5-methyl-1-oxo-1-1H,5H-benzo[i,j]quinolizine-2-carboxylic acid, reference compound], in data set [1], the MIC worked out at 1.56 µg/mL (≈ 4.33 µM).
Consider `Cc1cc(-c2ccc3c(=O)c(C(=O)O)cn(C4CC4)c3c2C)cc(C)n1` [a, 1-Cyclopropyl-7-(2,6-dimethyl-4-pyridyl)-8-methyl-4-oxo-1,4-dihydro-3-quinolinecarboxylic acid], for which, in data set [1], the MIC was determined as 0.2 µg/mL (≈ 0.574 µM). Further, the Micronucleus test result with ddy male mice [2] was “negative”. The “Acute toxicity (death of animals)” value with ddy male mice [3] was “In no case, the animals were dead”.
For `Cc1cc(-c2ccc3c(=O)c(C(=O)O)cn(C4CC4)c3c2C)cc(CO)n1` [b, 1-Cyclopropyl-7-(2-hydroxymethyl-6-methyl-4-pyridyl)-8-methyl-4-oxo-1,4-dihydro-3-quinolinecarboxylic acid], the MIC in data set [1] is 0.39 µg/mL (≈ 1.07 µM). In addition, in the data set on ddy male mice [3], the “Acute toxicity (death of animals)” value is “In no case, the animals were dead”.
In the case of `Cc1ccc(-c2ccc3c(=O)c(C(=O)O)cn(C4CC4)c3c2C)cn1` [c, 1-Cyclopropyl-7-(6-methyl-3-pyridyl)-8-methyl-4-oxo-1,4-dihydro-3-quinolinecarboxylic acid], the MIC in data set [1] was determined as 0.39 µg/mL (≈ 1.17 µM). Moreover, the Micronucleus test result in the data set on ddy male mice [2] was “negative”.
On to `CNc1ncc(-c2ccc3c(=O)c(C(=O)O)cn(C4CC4)c3c2C)cc1C` [d, 1-Cyclopropyl-8-methyl-7-[5-methyl-6-(methylamino)-3-pyridyl]-4-oxo-1,4-dihydro-3-quinolinecarboxylic acid], for which the MIC in data set [1] is 0.2 µg/mL (≈ 0.55 µM). In addition, the Micronucleus test result with ddy male mice [2] is “negative”. Further, the “Acute toxicity (death of animals)” value in the data set on ddy male mice [3] is given as “In no case, the animals were dead”.
Take `Cc1cc(-c2ccc3c(=O)c(C(=O)O)cn(C4CC4)c3c2OC(F)F)cnc1N` [e, 7-(6-Amino-5-methyl-3-pyridyl)-1-cyclopropyl-8-(difluoromethoxy)-4-oxo-1,4-dihydro-3-quinolinecarboxylic acid]: the MIC in data set [1] amounted to 0.78 µg/mL (≈ 1.94 µM).
As for `COc1c(-c2cnc(N)c(C)c2)ccc2c(=O)c(C(=O)O)cn(C3CC3)c12` [f, 7-(6-Amino-5-methyl-3-pyridyl)-1-cyclopropyl-8-methoxy-4-oxo-1,4-dihydro-3-quinolinecarboxylic acid], the MIC in data set [1] was 0.39 µg/mL (≈ 1.07 µM).
Regarding `Cc1cc(-c2ccc3c(=O)c(C(=O)O)cn(C4CC4)c3c2C)cnc1N` [g, 7-(6-Amino-5-methyl-3-pyridyl)-1-cyclopropyl-8-methyl-4-oxo-1,4-dihydro-3-quinolinecarboxylic acid], the MIC in data set [1] was determined as 0.1 µg/mL (≈ 0.286 µM). Further, the Micronucleus test result in the data set with ddy male mice [2] was “negative”. In addition, in the data set with ddy male mice [3], the “Acute toxicity (death of animals)” value is given as “In no case, the animals were dead”.
As to `Cc1c(-c2ccc(N)nc2)ccc2c(=O)c(C(=O)O)cn(C3CC3)c12` [h, 7-(6-Amino-3-pyridyl)-1-cyclopropyl-8-methyl-4-oxo-1,4-dihydro-3-quinolinecarboxylic acid], the MIC in data set [1] was found to be 0.1 µg/mL (≈ 0.298 µM).
For `Cc1cc(-c2cc(C)c3c(=O)c(C(=O)O)cn(C4CC4)c3c2C)cc(C)n1` [i, 1-Cyclopropyl-7-(2,6-dimethyl-4-pyridyl)-5,8-dimethyl-4-oxo-1,4-dihydro-3-quinolinecarboxylic acid], in data set [1], the MIC is 0.2 µg/mL (≈ 0.552 µM).
Still for that read-out and setting: then `Cc1cc(-c2cc(N)c3c(=O)c(C(=O)O)cn(C4CC4)c3c2C)cnc1C` [j, 5-Amino-1-cyclopropyl-7-(5,6-dimethyl-3-pyridyl)-8-methyl-4-oxo-1,4-dihydro-3-quinolinecarboxylic acid], with 0.39 µg/mL (≈ 1.07 µM).
